Measured values: patent US20040024056A1, “Dihydrofuran cyclic tanshinones used in treating hyperammonemia and hepatic encephalopathy” (priority 2001, published 2004)

Experiments:
healthy male mice [1] = experiment: 30 days toxicity test in mouse; assay type: in vivo; settings: intragastric, 200 mg/kg day
Experimental: The drug was continually administrated intragastrically for 30 days with dose of 200 mg/kg day.

healthy male mice [2] = experiment: Acute toxicity test in mouse
From the text: Acute toxicity test in mouse: The animals used in this study were healthy male mice. The drug was administrated intragastrically for 7 days once daily.

[3] = tested on: acute hepatocirrhosis hyperammnonemia rat model; experiment: Coma and death caused by acute hepatocirrhosis in rats (in oral); assay type: in vivo, SD rats; settings: Table 10; Cryptotanshinone oral 100 mg/kg; tetrachloro-methane peanut oil; 8.5 mmol/kg acetamide i.p. on 4th day
Experimental: The time from acetamide injection to coma (latent period), from coma to awakening (coma time) and death rate in rats was recorded.

hyperammonemia rats [4] = experiment: Blood ammonia reducing experiment (in injection), acetamide-treated rats; assay type: in vivo, SD rats; settings: for Blood ammonia concentration / Reduction rate: i.p. for 4 days, sodium glutamate 410 mg/kg
Experimental: The animals used in this experiment were 50 healthy male SD rats weighing 250-300 g. They were randomly divided into 5 groups, that is, group of normal control, experimental control (acetamide group), sodium glutamate/acetamide group, Dihydortanshinone I/acetamide group and tanshinone IIA/acetamide group. The rats in all those groups except the normal control group were injected intraperitoneally with saline, sodium glutamate injection (with a dose of 410 mg/kg), saline solution of Dihydortanshinone I (containing small amount of surface active agent, with a dose of 10 mg/kg), saline solution of tanshinone IIA (containing small amount of surface active agent, with a dose of 10 mg/kg) respectively. 45 min after the injection, the rats in all those groups except control group were injected intraperitoneally with 5.5 mmol/kg acetamide. Above injections continued for 4 days. In the 4th day, 30 min after the acetamide injection, blood samples of the rats in each group were collected by eyeball removing method immediately, and processed with the anticoagulant EDTA-Na, then the blood ammonia concentration was determined using conventional method. […] The dose of […] in this example and following examples was settled with the reference of its actual clinical dose. The method for determining the blood ammonia concentration in this example and following examples was enzyme-UV method, the instrument used was HITACHI-7170 automatic analyzer, and the kit used was AMMONIA kit.
(§1) With the same experiment method, 90 min after the acetamide injection at the 4th day, blood samples of the rats in each group were collected by eyeball removing method immediately, and processed with the anticoagulant EDTA-Na, then the blood ammonia concentration was determined.
The animals used in this experiment were 40 healthy male SD rats weighing 250-300 g. They were randomly divided into 4 groups, that is, normal control group, experimental control group (acetamide group), sodium glutamate/acetamide group, and Cryptotanshinone/acetamide group. The rats in all those groups except the normal control group were injected intraperitoneally with saline, sodium glutamate injection (with a dose of 410 mg/kg), and saline solution of Cryptotanshinone (containing small amount of surface active agent, with a dose of 10 mg/kg) respectively. 45 min after the injection, the rats in all those groups except the normal control group were injected intraperitoneally with 5.5 mmol/kg acetamide. Above injections continued for 4 days. In the 4th day, 30 min after the acetamide injection, blood samples of the rats in each group were collected by eyeball removing method immediately, and processed with the anticoagulant EDTA-Na, then the blood ammonia concentration was determined.

hyperammonemia rats [5] = experiment: Blood ammonia reducing experiment (in oral), acetamide-treated rats; assay type: in vivo, SD rats
Experimental: In the 4th day, 30 min after the acetamide injection, blood samples of the rats in each group were collected by eyeball removing method immediately, and processed with the anticoagulant EDTA-Na, then the blood ammonia concentration was determined.
as §1

[6] = tested on: acute hepatocirrhosis hyperammnonemia rat model; experiment: Coma and death caused by acute hepatocirrhosis in rats (in injection); assay type: in vivo, SD rats; settings: Table 9; i.p. 4 days, Cryptotanshinone 10 mg/kg, sodium glutamate 410 mg/kg; tetrachloro-methane peanut oil; 8.5 mmol/kg acetamide i.p. on 4th day
Experimental: The animals used in this experiment were 40 healthy male SD rats weighing 250-300 g. They were randomly divided into 4 groups, that is, group of normal control, experimental control (acetamide group), sodium glutamate/acetamide group, and Cryptotanshinone/acetamide group. The rats in all those groups except the normal control group were injected intraperitoneally with saline, sodium glutamate injection (with a dose of 410 mg/kg), and saline solution of Cryptotanshinone (containing small amount of surface active agent, with a dose of 10 mg/kg) respectively. 45 min after the injection, the rats in all those groups except the normal control group were injected intraperitoneally with peanut oil containing 0.1% tetrachloro-methane. Above injections continued for 4 days. In the 4th day, 45 min after the tetrachloride peanut oil injection, the rats in each group (including the normal control group) were injected intraperitoneally with 8.5 mmol/kg acetamide solution. The time from acetamide injection to coma (latent period), from coma to awakening (coma time) and death rate in rats was recorded.

[7] = Table 3, Cryptotanshinone 10 mg/kg, blood 30 min after acetamide on 4th day
[8] = Table 4, Cryptotanshinone 10 mg/kg, blood 90 min after acetamide on 4th day
[9] = Table 7, Cryptotanshinone in oral (intragastric 100 mg/kg), blood 30 min after acetamide on 4th day
[10] = Table 8, Cryptotanshinone in oral (intragastric 100 mg/kg), blood 90 min after acetamide on 4th day
[11] = Table 1, tanshinones 10 mg/kg, blood 30 min after 5.5 mmol/kg acetamide on 4th day
[12] = Table 1, tanshinones 10 mg/kg, blood 30 min after acetamide on 4th day
[13] = Table 2, tanshinones 10 mg/kg, blood 90 min after acetamide on 4th day
[14] = Table 5, tanshinones intragastric 100 mg/kg, acetamide 120 min later, blood 30 min after acetamide on 4th day
[15] = Table 6, tanshinones intragastric 100 mg/kg, blood 90 min after acetamide on 4th day

Structure (SMILES): C[C@H]1COC2=C1C(=O)C(=O)c1c2ccc2c1CCCC2(C)C [Cryptotanshinone, 1,6,6-trimethyl-1,2,6,7,8,9-hexahydrophenanthrene[1,2-b]furan-10,11-dione]
- Death of mice (healthy male mice [1]): no death of mice manifested
- Growth and development, hematopoietic function, biochemical index (healthy male mice [1]): no apparent abnormal change or toxic reaction
- Pathology of major organs (anatomical and tissue microscopy inspection) (healthy male mice [1]): No pathology change of major organs
- LD50 (healthy male mice [2]; mice, intragastric, once daily for 7 days): > 1500 mg/kg
- Toxic symptom or death (healthy male mice [2]; mice, intragastric, once daily for 7 days, dose up to 1.5 g/kg): no toxic symptom or death
- Toxicity, overall conclusion (healthy male mice [2]; summary statement): safe to use as drug in normal dosage
- Coma time (from coma to awakening) [3]: 75 min
- Latent period (time from acetamide injection to coma) [3]: 12 min
- Mortality [3]: 20%
- Blood ammonia concentration (hyperammonemia rats [4]; [7]): 420 µmol/L
- Reduction rate (hyperammonemia rats [4]; [7]): 60%
- Blood ammonia concentration (hyperammonemia rats [4]; [8]): 110 µmol/L
- Reduction rate (hyperammonemia rats [4]; [8]): 100%
- Blood ammonia concentration (hyperammonemia rats [5]; [9]): 470 µmol/L
- Reduction rate (hyperammonemia rats [5]; [9]): 54%
- Blood ammonia concentration (hyperammonemia rats [5]; [10]): 120 µmol/L
- Reduction rate (hyperammonemia rats [5]; [10]): 97%
- Coma time (from coma to awakening) [6]: 65 min
- Latent period (time from acetamide injection to coma) [6]: 12 min
- Mortality [6]: 20%

Structure (SMILES): Cc1cccc2c3c(ccc12)C1=C(C(=O)C3=O)C(C)CO1 (centres unmarked) [Dihydortanshinone I, 1,6-dimethyl-1,2-dihydrophenanthrene[1,2-b]furan-10,11-dione]
- Blood ammonia concentration (hyperammonemia rats [4]; [11]): 490 µmol/L
- Reduction rate (hyperammonemia rats [4]; [12]): 51%
- Blood ammonia concentration (hyperammonemia rats [4]; [13]): 125 µmol/L
- Reduction rate (hyperammonemia rats [4]; [13]): 96%
- Blood ammonia concentration (hyperammonemia rats [5]; [14]): 550 µmol/L
- Reduction rate (hyperammonemia rats [5]; [14]): 44%
- Blood ammonia concentration (hyperammonemia rats [5]; [15]): 135 µmol/L
- Reduction rate (hyperammonemia rats [5]; [15]): 89%

Structure (SMILES): N[C@@H](CCC(=O)[O-])C(=O)[O-].[Na+].[Na+] [Sodium Glutamate]
- Coma time (from coma to awakening) [3]: 90 min
- Latent period (time from acetamide injection to coma) [3]: 9 min
- Mortality [3]: 50%
- Blood ammonia concentration (hyperammonemia rats [4]; [11]): 480 µmol/L
- Reduction rate (hyperammonemia rats [4]; [12]): 53%
- Blood ammonia concentration (hyperammonemia rats [4]; [13]): 120 µmol/L
- Reduction rate (hyperammonemia rats [4]; [13]): 97%
- Blood ammonia concentration (hyperammonemia rats [4]; [7]): 480 µmol/L
- Reduction rate (hyperammonemia rats [4]; [7]): 53%
- Blood ammonia concentration (hyperammonemia rats [4]; [8]): 110 µmol/L
- Reduction rate (hyperammonemia rats [4]; [8]): 100%
- Blood ammonia concentration (hyperammonemia rats [5]; [14]): 510 µmol/L
- Reduction rate (hyperammonemia rats [5]; [14]): 49%
- Blood ammonia concentration (hyperammonemia rats [5]; [15]): 130 µmol/L
- Reduction rate (hyperammonemia rats [5]; [15]): 91%
- Blood ammonia concentration (hyperammonemia rats [5]; [9]): 510 µmol/L
- Reduction rate (hyperammonemia rats [5]; [9]): 49%
- Blood ammonia concentration (hyperammonemia rats [5]; [10]): 130 µmol/L
- Reduction rate (hyperammonemia rats [5]; [10]): 91%
- Coma time (from coma to awakening) [6]: 75 min
- Latent period (time from acetamide injection to coma) [6]: 11 min
- Mortality [6]: 50%

Structure (SMILES): Cc1coc2c1C(=O)C(=O)c1c-2ccc2c1CCCC2(C)C [Tanshinone IIA]
- Blood ammonia concentration (hyperammonemia rats [4]; [11]): 850 µmol/L
- Reduction rate (hyperammonemia rats [4]; [12]): <5%
- Blood ammonia concentration (hyperammonemia rats [4]; [13]): 265 µmol/L
- Reduction rate (hyperammonemia rats [4]; [13]): <12%
- Function to reduce the blood ammonia concentration (hyperammonemia rats [4]; hyperammonemia animal model, summary statement): have no such function
- Blood ammonia concentration (hyperammonemia rats [5]; [14]): 865 µmol/L
- Reduction rate (hyperammonemia rats [5]; [14]): <4%
- Blood ammonia concentration (hyperammonemia rats [5]; [15]): 270 µmol/L
- Reduction rate (hyperammonemia rats [5]; [15]): <10%
